In brackets after ≈: the same amount, converted by molar mass. Where two headings read alike, the source gives them in different places.
What was measured:
[1] = Microsome Stability (15 min), rat; format: in vitro ADME; conditions: microsomes, Phase I (NADPH), read-out: Microsome Stability (15 min) T ½ Phase I rat
Solubility pH 7.4 = conditions: pH 7.4, aqueous buffer
[2] = PAMPA permeability pH 7.4
PI3K alpha = PI3K alpha (Homo sapiens, UniProt P42336); test: PI3K-alpha Fluorescence Polarization Assay; format: biochemical
[3] = CACO2 permeability a-b/b-a; format: in vitro ADME; conditions: human, Caco-2; for Papp A→B: a − b (first value of cell), read-out: CACO2 Pe a − b; for Papp B→A: b − a (second value of cell), read-out: CACO2 Pe b − a
[4] = Microsome Stability (15 min), human; format: in vitro ADME; conditions: microsomes
[5] = Microsome Stability (15 min), nude mouse; format: in vitro ADME; conditions: microsomes
mTOR = mTOR (Homo sapiens, UniProt P42345); test: mTOR Enzyme Assay (DELFIA, purified enzyme); format: biochemical; set-up: FLAG
[6] = Buffer Stability (37° C.)
[7] = Plasma Stability (37° C.), rat
[8] = In vivo blood/plasma and tumor levels of prodrug and metabolites after 50 mg, kg po; conditions: 50 mg
[9] = Phase I (NADPH), read-out: Microsome Stability (15 min) T ½ Phase I human
[10] = value after the slash in Table VIc, read-out: Microsome Stability (15 min) T ½ human, second value of cell
[11] = nude, mouse, Phase I (NADPH), read-out: Microsome Stability (15 min) T ½ Phase I nude mouse
[12] = Phase I (NADPH), read-out: Microsome Stability (15 min) T ½ Phase I nude mouse

Sequence of PI3K alpha (P42336 whole entry, species assumed): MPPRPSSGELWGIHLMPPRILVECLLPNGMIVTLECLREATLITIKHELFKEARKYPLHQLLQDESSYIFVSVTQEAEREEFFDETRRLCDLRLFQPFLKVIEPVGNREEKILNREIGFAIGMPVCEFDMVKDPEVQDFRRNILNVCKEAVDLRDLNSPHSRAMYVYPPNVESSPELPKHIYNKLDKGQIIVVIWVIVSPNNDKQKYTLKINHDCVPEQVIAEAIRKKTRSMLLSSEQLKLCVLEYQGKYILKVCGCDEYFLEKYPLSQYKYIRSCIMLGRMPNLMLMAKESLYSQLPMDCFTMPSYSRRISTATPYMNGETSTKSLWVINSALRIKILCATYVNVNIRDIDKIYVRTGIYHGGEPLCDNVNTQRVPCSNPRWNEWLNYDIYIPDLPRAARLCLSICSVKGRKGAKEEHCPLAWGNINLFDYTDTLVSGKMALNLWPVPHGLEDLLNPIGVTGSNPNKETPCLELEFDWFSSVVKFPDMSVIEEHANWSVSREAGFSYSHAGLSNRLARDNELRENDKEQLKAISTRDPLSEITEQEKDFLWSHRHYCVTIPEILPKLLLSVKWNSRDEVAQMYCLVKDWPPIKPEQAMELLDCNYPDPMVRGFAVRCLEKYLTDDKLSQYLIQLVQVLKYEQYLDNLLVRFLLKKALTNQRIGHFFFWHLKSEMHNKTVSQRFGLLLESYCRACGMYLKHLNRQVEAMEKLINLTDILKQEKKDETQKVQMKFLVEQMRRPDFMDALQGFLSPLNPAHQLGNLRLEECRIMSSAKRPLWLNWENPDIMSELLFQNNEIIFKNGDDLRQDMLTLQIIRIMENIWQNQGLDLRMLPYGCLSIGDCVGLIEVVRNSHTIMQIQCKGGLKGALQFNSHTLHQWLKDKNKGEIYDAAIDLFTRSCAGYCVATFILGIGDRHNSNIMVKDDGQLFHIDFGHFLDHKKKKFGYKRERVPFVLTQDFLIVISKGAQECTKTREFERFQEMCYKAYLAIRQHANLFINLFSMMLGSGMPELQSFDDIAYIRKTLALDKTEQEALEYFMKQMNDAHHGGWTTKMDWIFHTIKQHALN
Sequence of PI3K alpha (P27986 whole entry partner, species assumed): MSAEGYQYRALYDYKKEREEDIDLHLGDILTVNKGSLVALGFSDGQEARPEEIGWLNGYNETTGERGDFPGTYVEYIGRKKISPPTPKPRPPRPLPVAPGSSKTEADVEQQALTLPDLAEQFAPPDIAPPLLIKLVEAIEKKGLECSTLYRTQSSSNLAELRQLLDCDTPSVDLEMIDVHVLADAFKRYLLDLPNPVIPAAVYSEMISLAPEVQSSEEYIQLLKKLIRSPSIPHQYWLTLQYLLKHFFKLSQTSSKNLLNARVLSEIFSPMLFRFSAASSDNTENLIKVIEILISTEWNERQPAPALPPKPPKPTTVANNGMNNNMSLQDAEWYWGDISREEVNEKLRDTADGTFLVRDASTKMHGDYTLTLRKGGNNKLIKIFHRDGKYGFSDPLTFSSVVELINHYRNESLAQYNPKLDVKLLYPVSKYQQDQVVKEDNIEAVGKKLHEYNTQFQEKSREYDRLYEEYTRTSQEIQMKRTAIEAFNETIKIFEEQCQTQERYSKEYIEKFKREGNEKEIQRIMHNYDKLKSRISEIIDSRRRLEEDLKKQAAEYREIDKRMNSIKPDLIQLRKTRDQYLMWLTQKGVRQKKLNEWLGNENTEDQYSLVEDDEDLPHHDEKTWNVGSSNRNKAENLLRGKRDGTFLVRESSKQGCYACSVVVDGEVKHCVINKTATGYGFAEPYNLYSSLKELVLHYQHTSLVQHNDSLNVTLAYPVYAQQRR

SMILES | half-life [1] [min] | solubility (Solubility pH 7.4) [µg/mL] | PAMPA Pe [2] | half-life [4, 9] [min] | IC50 (mTOR; read-out: mTOR Mean IC50) [nM] | IC50 (PI3K alpha) [nM] | also measured
COc1ccc2c(c1)c(/C=C1\Oc3cc(O)ccc3C1=O)cn2CCCN(C)C [(2Z)-2-({1-[3-(dimethylamino)propyl]-5-methoxy-1H-indol-3-yl}methylene)-6-hydroxy-1-benzofuran-3(2H)-one] | 12 | 53 (≈ 135 µM) | 0 10e−6 cm/s | – | – | – | –
Cn1cc(/C=C2\Oc3cc(O)cc(O)c3C2=O)c2c(-c3ccccc3)ccnc21 [(2Z)-4,6-dihydroxy-2-[(1-methyl-4-phenyl-1H-pyrrolo[2,3-b]pyridin-3-yl)methylene]-1-benzofuran-3(2H)-one] | > 30 | 1 (≈ 2.6 µM) | 0.09 10e−6 cm/s | > 30 | – | – | IC50 (PI3K alpha; read-out: PI3K alpha Mean IC50): 62.8 nM; Papp A→B [3]: 66.3 ×10⁻⁶ cm/s; Papp B→A [3]: 58.1 ×10⁻⁶ cm/s; half-life [4, 10]: 6 min; half-life [5, 11]: 30 min; half-life ([5]; nude, mouse, value after the slash in Table VIc, read-out: Microsome Stability (15 min) T ½ nude mouse, second value of cell): 2 min
Cn1cc(/C=C2\Oc3cccc(O)c3C2=O)c2c(N3CC4CCC(C3)O4)ccnc21 [(2Z)-4-hydroxy-2-{[1-methyl-4-(8-oxa-3-azabicyclo[3.2.1]oct-3-yl)-1H-pyrrolo[2,3-b]pyridin-3-yl]methylene}-1-benzofuran-3(2H)-one] | 2 | – | 0.79 10e−6 cm/s | 28 | – | – | Papp A→B [3]: 5.5 ×10⁻⁶ cm/s; Papp B→A [3]: 8.1 ×10⁻⁶ cm/s; half-life [4, 10]: 3 min; half-life [5, 11]: 13 min
COc1ccc2c(c1)c(/C=C1\Oc3ccc(O)cc3C1=O)c(C)n2CCN1CCN(C)CC1 [(2Z)-5-hydroxy-2-({5-methoxy-2-methyl-1-[2-(4-methylpiperazin-1-yl)ethyl]-1H-indol-3-yl}methylene)-1-benzofuran-3(2H)-one] | – | – | – | – | 1050 | – | –
COc1ccc2c(c1)c(/C=C1\Oc3cc(OC(=O)C(C)(C)C)cc(OC(=O)C(C)(C)C)c3C1=O)cn2CCCN(C)C [Example 14, (2Z)-2-({1-[3-(dimethylamino)propyl]-5-methoxy-1H-indol-3-yl}methylene)-3-oxo-2,3-dihydro-1-benzofuran-4,6-diyl bis(2,2-dimethylpropanoate)] | 3 | 1 (≈ 1.73 µM) | 0 10e−6 cm/s | 21 | – | – | half-life [5, 11]: 2 min; Buffer Stability (37° C.) % Remaining (at 16-23 hours) SGF [6]: 94%; Buffer Stability (37° C.) % Remaining (at 16-23 hours) SIF [6]: 0%; Buffer Stability (37° C.) % Remaining (at 16-23 hours) pH 1 [6]: 89%; Buffer Stability (37° C.) % Remaining (at 16-23 hours) pH 4.5 [6]: 98%; Buffer Stability (37° C.) % Remaining (at 16-23 hours) pH 6.6 [6]: 79%; Buffer Stability (37° C.) % Remaining (at 16-23 hours) pH 7.4 [6]: 20%; Buffer Stability (37° C.) % Remaining (at 16-23 hours) pH 9 [6]: 0%
COc1ccc2[nH]c(-c3ccccc3)c(/C=C3\Oc4cc(OC(=O)c5ccccc5)ccc4C3=O)c2c1 [Example 17, (2Z)-2-[(5-methoxy-2-phenyl-1H-indol-3-yl)methylene]-3-oxo-2,3-dihydro-1-benzofuran-6-yl benzoate] | 5 | 4 (≈ 8.2 µM) | 0 10e−6 cm/s | 4 | – | – | IC50 (PI3K alpha; read-out: PI3K alpha Mean IC50): 157 nM; half-life [5, 11]: > 30 min; Buffer Stability (37° C.) % Remaining (at 16-23 hours) SGF [6]: 96%; Buffer Stability (37° C.) % Remaining (at 16-23 hours) SIF [6]: 0%; Buffer Stability (37° C.) % Remaining (at 16-23 hours) pH 1 [6]: 95%; Buffer Stability (37° C.) % Remaining (at 16-23 hours) pH 4.5 [6]: 93%; Buffer Stability (37° C.) % Remaining (at 16-23 hours) pH 6.6 [6]: 95%; Buffer Stability (37° C.) % Remaining (at 16-23 hours) pH 7.4 [6]: 32%; Buffer Stability (37° C.) % Remaining (at 16-23 hours) pH 9 [6]: 0%; Plasma Stability (37° C.) % Remaining (3-3.5 hours) rat [7]: 2%
COc1ccc2[nH]c(-c3ccccc3)c(/C=C3\Oc4cc(OC(=O)Oc5ccccc5)cc(OC(=O)Oc5ccccc5)c4C3=O)c2c1 [Example 23, (2Z)-2-[(5-methoxy-2-phenyl-1H-indol-3-yl)methylene]-3-oxo-2,3-dihydro-1-benzofuran-4,6-diyl diphenyl biscarbonate] | 8 | 1 (≈ 1.56 µM) | 0 10e−6 cm/s | 6 | – | – | IC50 (PI3K alpha; read-out: PI3K alpha Mean IC50): 10 nM; Buffer Stability (37° C.) % Remaining (at 16-23 hours) SGF [6]: 0%; Buffer Stability (37° C.) % Remaining (at 16-23 hours) SIF [6]: 0%; Buffer Stability (37° C.) % Remaining (at 16-23 hours) pH 1 [6]: 0%; Buffer Stability (37° C.) % Remaining (at 16-23 hours) pH 4.5 [6]: 0%; Buffer Stability (37° C.) % Remaining (at 16-23 hours) pH 6.6 [6]: 0%; Buffer Stability (37° C.) % Remaining (at 16-23 hours) pH 7.4 [6]: 0%; Buffer Stability (37° C.) % Remaining (at 16-23 hours) pH 9 [6]: 0%; Plasma Stability (37° C.) % Remaining (3-3.5 hours) rat [7]: 0%
COc1ccc2c(c1)c(/C=C1\Oc3cc(OC(=O)N(c4ccccc4)c4ccccc4)cc(OC(=O)N(c4ccccc4)c4ccccc4)c3C1=O)c(C)n2CCN1CCN(C)CC1 [Example 29, (2Z)-2-({5-methoxy-2-methyl-1-[2-(4-methylpiperazin-1-yl)ethyl]-1H-indol-3-yl}methylene)-3-oxo-2,3-dihydro-1-benzofuran-4,6-diyl bis(diphenylcarbamate)] | – | 5 (≈ 5.85 µM) | 0 10e−6 cm/s | – | – | 1000 | –
COc1ccc2[nH]c(-c3ccccc3)c(/C=C3\Oc4cc(OC(=O)N(C)C)cc(OC(=O)N(C)C)c4C3=O)c2c1 [Example 30, (2Z)-2-[(5-methoxy-2-phenyl-1H-indol-3-yl)methylene]-3-oxo-2,3-dihydro-1-benzofuran-4,6-diyl bis(dimethylcarbamate)] | 19 | – | 0 10e−6 cm/s | < 1 | – | 2220 | Papp A→B [3]: 0.19 ×10⁻⁶ cm/s; Papp B→A [3]: 0.04 ×10⁻⁶ cm/s; half-life [5, 12]: > 30 min; plasma prodrug concentration ([8]; 0.5 h): 29 ng, ml; plasma prodrug concentration ([8]; 2 h): 65 ng, ml; plasma prodrug concentration ([8]; 6 h (third value)): 20 ng, ml
COc1ccc2[nH]c(-c3ccccc3)c(/C=C3\Oc4cc(OC(=O)N(C(C)C)C(C)C)cc(OC(=O)N(C(C)C)C(C)C)c4C3=O)c2c1 [Example 31, (2Z)-2-[(5-methoxy-2-phenyl-1H-indol-3-yl)methylene]-3-oxo-2,3-dihydro-1-benzofuran-4,6-diyl bis(diisopropylcarbamate)] | 9 | – | 0 10e−6 cm/s | 7 | 510 | – | IC50 (PI3K alpha; read-out: PI3K alpha Mean IC50): 270 nM; half-life [5, 12]: > 30 min
CCOP(=O)(OCC)Oc1cc2c(c(OP(=O)(OCC)OCC)c1)C(=O)/C(=C/c1cn(CCCN(C)C)c3ccc(OC)cc13)O2 [Example 33, (2Z)-2-({1-[3-(dimethylamino)propyl]-5-methoxy-1H-indol-3-yl}methylene)-3-oxo-2,3-dihydro-1-benzofuran-4,6-diyl tetraethyl bis(phosphate)] | 12 | 59 | 0.25 10e−6 cm/s | 4 | – | > 10000 | half-life [5, 12]: 15 min
CCOC(=O)CNC(=O)Oc1cc(OC(=O)NCC(=O)OCC)c2c(c1)O/C(=C\c1cn(CCCN(C)C)c3ccc(OC)cc13)C2=O [Example 35, diethyl 2,2′-[[(2Z)-2-({1-[3-(dimethylamino)propyl]-5-methoxy-1H-indol-3-yl}methylene)-3-oxo-2,3-dihydro-1-benzofuran-4,6-diyl]bis(oxycarbonylimino)]diacetate] | – | 51 (≈ 76.5 µM) | 0 10e−6 cm/s | – | – | 28 | –
COc1ccc2c(c1)c(/C=C1\Oc3cc(OC(=O)N4CCN(Cc5ccccc5)CC4)cc(OC(=O)N4CCN(Cc5ccccc5)CC4)c3C1=O)cn2CCCN(C)C [Example 37, (2Z)-2-({1-[3-(dimethylamino)propyl]-5-methoxy-1H-indol-3-yl}methylene)-3-oxo-2,3-dihydro-1-benzofuran-4,6-diyl bis(4-benzylpiperazine-1-carboxylate)] | – | – | 0 10e−6 cm/s | – | 1650 | > 10000 | –
COc1ccc2c(c1)c(/C=C1\Oc3cc(O)cc(OC(=O)N(C)C)c3C1=O)cn2CCCN(C)C [Example 40, (2Z)-2-({1-[3-(dimethylamino)propyl]-5-methoxy-1H-indol-3-yl}methylene)-6-hydroxy-3-oxo-2,3-dihydro-1-benzofuran-4-yl dimethylcarbamate] | – | – | – | – | > 20000 | 5880 | –
COc1ccc2c(c1)c(/C=C1\Oc3cc(OC(=O)N(C)C)cc(O)c3C1=O)c(C)n2CCN1CCN(C)CC1 [Example 41, (2Z)-4-hydroxy-2-({5-methoxy-2-methyl-1-[2-(4-methylpiperazin-1-yl)ethyl]-1H-indol-3-yl}methylene)-3-oxo-2,3-dihydro-1-benzofuran-6-yldimethylcarbamate] | – | – | – | – | – | 1130 | IC50 (mTOR): 13000 nM
COc1ccc2c(c1)c(/C=C1\Oc3cc(OC(=O)N(C)C)cc(O)c3C1=O)cn2CCCN(C)C [Example 42, (2Z)-2-({1-[3-(dimethylamino)propyl]-5-methoxy-1H-indol-3-yl}methylene)-4-hydroxy-3-oxo-2,3-dihydro-1-benzofuran-6-yl dimethylcarbamate] | – | – | – | – | > 20000 | 2800 | –
